Experimental data published in PubChem BioAssay AID248 (DTP/NCI, 2004).
“And” between values parts separate entries of the source, which are not always exact repeats. Identical values can stand only once. Inconclusive results and toxic doses are left out. Cut-off read from the data, not from the text of the source: active = T/C of 150% or more; inactive = T/C below 125%.

Tested on: L1210 leukemia ip in BDF1 mice, survival T/C
Test: NCI In Vivo Anticancer Drug Screen. Data for tumor model L1210 Leukemia (intraperitoneal) in B6D2F1 (BDF1) mice
Conditions: endpoint: mean survival time, higher = longer survival
How it was run: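 Read-out is survival time, reported as the treated-group measurement over the vehicle-control measurement.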

[1] = dose: 50.0 mg/kg/injection, schedule: Q01DX001 (ip), vehicle: saline
[2] = dose: 100.0 mg/kg/injection, schedule: Q01DX001 (ip), vehicle: saline
[3] = dose: 100.0 mg/kg/injection, schedule: Q04DX003 (ip), vehicle: Klucel (hydroxypropylcellulose) (HPC)
[4] = dose: 200.0 mg/kg/injection, schedule: Q01DX001 (ip), vehicle: saline
[5] = dose: 200.0 mg/kg/injection, schedule: Q04DX003 (ip), vehicle: Klucel (hydroxypropylcellulose) (HPC)
[6] = dose: 25.0 mg/kg/injection, schedule: Q01DX009 (ip), vehicle: saline
[7] = dose: 50.0 mg/kg/injection, schedule: Q01DX009 (ip), vehicle: saline
[8] = dose: 100.0 mg/kg/injection, schedule: Q01DX001 (ip), vehicle: saline with Tween-80
[9] = dose: 200.0 mg/kg/injection, schedule: Q01DX001 (ip), vehicle: saline with Tween-80
[10] = dose: 400.0 mg/kg/injection, schedule: Q01DX001 (ip), vehicle: saline with Tween-80
[11] = dose: 100.0 mg/kg/injection, schedule: Q04DX003 (ip), vehicle: saline with Tween-80
[12] = dose: 200.0 mg/kg/injection, schedule: Q04DX003 (ip), vehicle: saline with Tween-80
[13] = dose: 400.0 mg/kg/injection, schedule: Q04DX003 (ip), vehicle: Klucel (hydroxypropylcellulose) (HPC)
[14] = dose: 400.0 mg/kg/injection, schedule: Q01DX001 (ip), vehicle: saline
[15] = dose: 50.0 mg/kg/injection, schedule: Q01DX009 (ip), vehicle: saline with Tween-80
[16] = dose: 100.0 mg/kg/injection, schedule: Q01DX009 (ip), vehicle: saline with Tween-80
[17] = dose: 200.0 mg/kg/injection, schedule: Q01DX009 (ip), vehicle: saline with Tween-80
[18] = dose: 100.0 mg/kg/injection, schedule: Q01DX001 (ip), vehicle: Klucel (hydroxypropylcellulose) (HPC)
[19] = dose: 100.0 mg/kg/injection, schedule: Q01DX001 (ip), vehicle: carboxymethylcellulose (CMC)
[20] = dose: 200.0 mg/kg/injection, schedule: Q01DX001 (ip), vehicle: carboxymethylcellulose (CMC)
[21] = dose: 400.0 mg/kg/injection, schedule: Q01DX001 (ip), vehicle: carboxymethylcellulose (CMC)

Measured: T/C

COn1c(=O)c2ccccc2n(C)c1=O
inactive: dose: 62.5 mg/kg/injection, schedule: Q01DX009 (ip), vehicle: other 96 % of control | dose: 125.0 mg/kg/injection, schedule: Q01DX009 (ip), vehicle: other 94 % of control | dose: 250.0 mg/kg/injection, schedule: Q01DX009 (ip), vehicle: other 98 % of control

Cc1n[nH]c(=S)nc1C
inactive: [1] 96 % of control | dose: 50.0 mg/kg/injection, schedule: Q04DX003 (ip), vehicle: Klucel (hydroxypropylcellulose) (HPC) 96 % of control | [2] 102 % of control | [3] 96 % of control | [4] 93 % of control | [5] 91 % of control

C1CC2CCCN2C1
inactive: dose: 12.5 mg/kg/injection, schedule: Q01DX009 (ip), vehicle: saline 93 % of control | [6] 93 % of control | [7] 95 % of control

Clc1ccc(C2=NC(c3ccccc3)N3C2C3c2ccccc2)cc1 (centres undefined)
inactive: [8] 95 % of control | [9] 89 % of control | [10] 89 % of control

O=C(O)c1cscc1-c1cccc2ccccc12
inactive: [11] 91 % of control | [12] 98 % of control

C=CCc1cnc(SC)[nH]c1=O
inactive: [3] 102 % of control | [5] 97 % of control | [13] 93 % of control

Brc1ccc2[nH]c3c(c2c1)CCCC3
inactive: [2] 87 % of control | [4] 89 % of control | [14] 98 % of control

Clc1ccccc1C=NCC1CCC(CN=Cc2ccccc2Cl)CC1 (centres undefined)
inactive: [15] 92 % of control and 100 % of control | [8] 106 % of control | [16] 92 % of control | dose: 100.0 mg/kg/injection, schedule: Q04DX002 (ip), vehicle: saline with Tween-80 104 % of control and 88 % of control | [9] 93 % of control | [17] 90 % of control | dose: 200.0 mg/kg/injection, schedule: Q04DX002 (ip), vehicle: saline with Tween-80 100 % of control | [10] 98 % of control | dose: 400.0 mg/kg/injection, schedule: Q04DX002 (ip), vehicle: saline with Tween-80 89 % of control

N#Cc1cc(-c2ccccc2)c[nH]c1=O
inactive: dose: 20.0 mg/kg/injection, schedule: Q01DX001 (ip), vehicle: Klucel (hydroxypropylcellulose) (HPC) 98 % of control | dose: 40.0 mg/kg/injection, schedule: Q01DX001 (ip), vehicle: Klucel (hydroxypropylcellulose) (HPC) 101 % of control | dose: 80.0 mg/kg/injection, schedule: Q01DX001 (ip), vehicle: Klucel (hydroxypropylcellulose) (HPC) 103 % of control | [18] 102 % of control

CC(/C=N/NC(N)=S)=N\NC(N)=S
inactive: dose: 12.5 mg/kg/injection, schedule: Q01DX Z (oral), vehicle: carboxymethylcellulose (CMC) 106 % of control | dose: 25.0 mg/kg/injection, schedule: Q01DX Z (oral), vehicle: carboxymethylcellulose (CMC) 113 % of control | dose: 50.0 mg/kg/injection, schedule: Q01DX001 (ip), vehicle: carboxymethylcellulose (CMC) 97 % of control | dose: 50.0 mg/kg/injection, schedule: Q01DX Z (ip), vehicle: carboxymethylcellulose (CMC) 95 % of control | dose: 50.0 mg/kg/injection, schedule: Q01DX Z (oral), vehicle: carboxymethylcellulose (CMC) 113 % of control | [19] 101 % of control | dose: 100.0 mg/kg/injection, schedule: Q01DX Z (ip), vehicle: carboxymethylcellulose (CMC) 100 % of control | dose: 100.0 mg/kg/injection, schedule: Q01DX Z (oral), vehicle: carboxymethylcellulose (CMC) 124 % of control | [20] 91 % of control | dose: 200.0 mg/kg/injection, schedule: Q01DX Z (ip), vehicle: carboxymethylcellulose (CMC) 103 % of control | [21] 97 % of control | dose: 400.0 mg/kg/injection, schedule: Q01DX Z (ip), vehicle: carboxymethylcellulose (CMC) 103 % of control

CCCCCCCCOC(=O)Nc1ccc(S(=O)(=O)NC2CCCCC2)cc1
inactive: [19] 89 % of control | [20] 89 % of control | [21] 94 % of control

CSc1nccnc1C
inactive: dose: 50.0 mg/kg/injection, schedule: Q01DX009 (ip), vehicle: Klucel (hydroxypropylcellulose) (HPC) 119 % of control | dose: 100.0 mg/kg/injection, schedule: Q01DX009 (ip), vehicle: Klucel (hydroxypropylcellulose) (HPC) 96 % of control | dose: 200.0 mg/kg/injection, schedule: Q01DX009 (ip), vehicle: Klucel (hydroxypropylcellulose) (HPC) 105 % of control

Cc1ccc(NC(=O)c2ccc(Cl)cc2Cl)cc1C
inactive: [18] 90 % of control | [16] 106 % of control | [3] 108 % of control | dose: 200.0 mg/kg/injection, schedule: Q01DX001 (ip), vehicle: Klucel (hydroxypropylcellulose) (HPC) 90 % of control | [17] 97 % of control | [5] 93 % of control | dose: 400.0 mg/kg/injection, schedule: Q01DX001 (ip), vehicle: Klucel (hydroxypropylcellulose) (HPC) 92 % of control | dose: 400.0 mg/kg/injection, schedule: Q01DX009 (ip), vehicle: saline with Tween-80 100 % of control | [13] 94 % of control

CN1C(=O)OC(C)(C)C1=O
inactive: [6] 98 % of control | dose: 25.0 mg/kg/injection, schedule: Q04DX003 (ip), vehicle: saline 93 % of control | [7] 95 % of control | dose: 50.0 mg/kg/injection, schedule: Q04DX003 (ip), vehicle: saline 109 % of control | dose: 100.0 mg/kg/injection, schedule: Q01DX009 (ip), vehicle: saline 102 % of control | dose: 100.0 mg/kg/injection, schedule: Q04DX003 (ip), vehicle: saline 98 % of control | dose: 200.0 mg/kg/injection, schedule: Q01DX009 (ip), vehicle: saline 96 % of control | dose: 200.0 mg/kg/injection, schedule: Q04DX003 (ip), vehicle: saline 109 % of control | dose: 400.0 mg/kg/injection, schedule: Q01DX009 (ip), vehicle: saline 106 % of control | dose: 400.0 mg/kg/injection, schedule: Q04DX003 (ip), vehicle: saline 98 % of control

Cc1cc(C)c(NC(=O)NCCCl)c(C)c1
inactive: [15] 103 % of control | [16] 109 % of control | [11] 91 % of control | [17] 116 % of control | [12] 93 % of control | dose: 400.0 mg/kg/injection, schedule: Q04DX003 (ip), vehicle: saline with Tween-80 117 % of control

NNc1ncnc2nncnc12
inactive: dose: 9.5 mg/kg/injection, schedule: Q01DX001 (ip), vehicle: other 98 % of control | dose: 19.0 mg/kg/injection, schedule: Q01DX001 (ip), vehicle: other 105 % of control | dose: 38.0 mg/kg/injection, schedule: Q01DX001 (ip), vehicle: other 104 % of control

C=CCOC(=O)C1OC12CCCCC2 (centres undefined)
inactive: [1] 104 % of control | [2] 95 % of control | [4] 101 % of control | [14] 98 % of control

COc1ccc(Oc2ccc(-c3ccccc3)cc2)cc1
inactive: [19] 98 % of control | [20] 102 % of control | [21] 96 % of control
